According to a melting point compilation (Tetko et al.; mined from patent text by program, amines drawn as free bases though some values may be those of a salt):

Compared with `CCCC12CCC3C4CCC(=O)C=C4CCC3C1CCC2(O)CC` (stereo not given), `CC(C)C(C)CCC(C)C1CC(=O)C2=C3C(=O)CC4CC(OC(=O)c5ccccc5)CCC4(C)C3CCC21C` (stereo not given) is higher in melting point: 93 to 95 °C for the first, 176 to 177 °C for the second.

First: CC(=O)c1ccc2ccc(C(=O)O)cc2c1
Second: O=C(O)CCC(=O)c1ccc2sc3ccccc3c2c1
The melting point of the first is higher: 224 to 228 °C for the first, 157 to 158 °C for the second.

First: Nc1ccccc1C(O)c1cc(C(F)(F)F)nc2c(C(F)(F)F)cccc12 (stereo not given)
Second: CCOC(=O)c1[nH]c2ccc(Cl)cc2c1-c1ccccc1F
The melting point of the first is lower: 146 °C for the first, 191 to 193 °C for the second.

First: Cc1[nH]c(=O)c(C#N)cc1-c1ccncc1
Second: N#Cc1cc(-c2ccc(Cl)cc2)c[nH]c1=O
The melting point of the first is higher: > 300 °C for the first, 278 to 280 °C for the second.

First: CC(C)(C)OC(=O)N1CCN(c2ccc([N+](=O)[O-])cc2C#N)CC1
Second: CN1CCC(Cc2ccccc2)(Oc2ccc([N+](=O)[O-])cc2)CC1
The melting point of the first is higher: 141 to 142 °C for the first, 116 to 117 °C for the second.

Compared with `Nc1ccc(S(=O)C(F)(F)C(F)F)cc1F` (stereo not given), `FC(F)(F)Oc1ccc2[nH]c(S)nc2c1` is higher in melting point: 67 to 69 °C for the first, 305 to 307 °C for the second.

First: CC(C)(CO)CCS(N)(=O)=O
Second: CN1C(=O)N(CCC(=O)O)C(C)(C)C1=O
The melting point of the first is lower: 75 to 76 °C for the first, 103 °C for the second.

First: CCCN1CCCC1CNS(=O)(=O)c1ccc(Nc2ccnc3cc(Cl)ccc23)cc1 (stereo not given)
Second: CCN1CCN(c2cccc3ccc(-c4cccc(NS(C)(=O)=O)c4)cc23)CC1
The melting point of the first is higher: 192 to 194 °C for the first, 100 to 101 °C for the second.

Compared with `C=CC(=O)NC[C@H](O)[C@@H](O)[C@H](O)[C@H](O)CO`, `NC(=O)C1CCN(C(=O)CNC(=O)CN2CCCC2=O)CC1` is higher in melting point: 122 to 123 °C for the first, 217 to 219 °C for the second.

First: COc1cc(OC)c2c(c1)OCC(CNCCCOc1cccc(N)c1)O2 (stereo not given)
Second: Cn1ncc(NCCN(CCOc2cccc3c2OCCO3)Cc2ccccc2)c(Cl)c1=O
The melting point of the first is higher: 123 to 128 °C for the first, 78 to 80 °C for the second.

First: ON=C1CCCc2c1ccc1ccccc21
Second: O=C1c2ccccc2C(=O)c2sc(-c3ccccc3)nc21
The melting point of the first is lower: 174 to 175 °C for the first, 249 °C for the second.

First: OC(c1ccc(OCc2ccccc2)cc1)c1ccc(OCc2ccccc2)cc1
Second: COC=C1CN(C(c2ccccc2)c2ccccc2)C1
The melting point of the first is higher: 113 to 120 °C for the first, 56 to 58 °C for the second.

First: COc1ccc2cc(C(C)C(=O)ON(C(N)=O)C(C)c3ccoc3)ccc2c1 (stereo not given)
Second: CCOc1ccc(C(c2ccc(C(C)(C)C)cc2)C(C)[N+](=O)[O-])cc1 (stereo not given)
The melting point of the first is higher: 128 to 134 °C for the first, 79 to 82 °C for the second.

Compared with `CC(C)C1(Cl)Cc2cc(OCC(=O)O)cc(Cl)c2C1=O` (stereo not given), `CC(=O)OC1N=C(c2ccccc2Cl)c2c(cn(C)c2C)N(C)C1=O` (stereo not given) is higher in melting point: 142 °C for the first, 202 to 204 °C for the second.

Compared with `Cc1ccc(NC(=O)NCC(=O)N(CC(=O)OC(C)(C)C)c2ccccc2C(=O)c2ccccc2)cc1`, `C=C(C)COc1ccc(Br)cc1CN(CC)c1ccc(C(=O)NS(=O)(=O)c2ccccc2)cn1` is higher in melting point: 182 to 183 °C for the first, 193 °C for the second.

First: COC(=O)c1cnc(Cl)c(C)n1
Second: CCOC(=O)c1c[nH]c2nc(NCc3ccccc3)nn2c1=O
The melting point of the first is lower: 49 to 50 °C for the first, 275 to 278 °C for the second.

Compared with `CCOC(=O)CCn1c(C(=O)NC(N)=S)cc2ccccc21`, `CCCCn1c(=O)c([N+](=O)[O-])c(NC)c2ccccc21` is higher in melting point: 160 to 162 °C for the first, 225 to 227 °C for the second.

First: C#CCN(Cc1ccc2nc[nH]c(=O)c2c1)c1ccc(C(=O)NCc2cccnc2)cc1
Second: CCc1cc(SCc2cccc3sc(-c4ccc(C(F)(F)F)cc4)nc23)ccc1OCC(=O)O
The melting point of the first is higher: 137 to 139 °C for the first, 89 to 92 °C for the second.

Compared with `Nc1nc2c(sc(=O)n2CC2CCCO2)c(=O)[nH]1` (stereo not given), `Nc1cccc2c1CNC2=O` is lower in melting point: 257 to 261 °C for the first, 196 to 197 °C for the second.

First: CCCc1cc(N2CCC(NCC(O)c3cnc4ccccc4c3)CC2)nc2sc(C(N)=O)c(N)c12 (stereo not given)
Second: CC(C)n1nc(-c2sc(NC(=O)CN3CCCCC3)nc2-c2ccccc2)ccc1=O
The melting point of the first is higher: 213 to 216 °C for the first, 189 to 190 °C for the second.

First: CCc1nc(O)cc(O)n1
Second: Cc1oc(-c2ccc(C(F)(F)F)cc2)nc1-c1ccc2c(Br)c(OCC(=O)O)ccc2c1
The melting point of the first is higher: 312 to 315 °C for the first, 212 to 214 °C for the second.

First: Nc1nc(-c2ccncc2O)nc2c1c(C(F)(F)F)nn2C1CCCC1
Second: CC1Cc2cc(O)ccc2C2C(F)CC3(C)C(=O)CCC3C12 (stereo not given)
The melting point of the first is higher: 187 to 190 °C for the first, 185 to 186 °C for the second.

First: COc1c(C)c(C)c(OC)c(C=CC(=O)C(=O)O)c1C
Second: CCN1C(=O)C(C)(C)C(=O)N(C)c2cc(CN(CCn3ccc4oc(C)cc4c3=O)Cc3cccc4c3OCO4)ccc21
The melting point of the first is lower: 126 to 127 °C for the first, 136 to 138 °C for the second.

First: Cc1nc2c(c3c1[nH]c1ccccc13)C(=O)CC(c1ccccc1)C2 (stereo not given)
Second: O=C1C(=O)c2ccccc2C2=C1SCC1(CCCN(CC(O)Cc3ccccc3)C1)O2 (stereo not given)
The melting point of the first is higher: 246 to 248 °C for the first, 59 to 60 °C for the second.

Compared with `COC(=O)COc1ccc2c(c1)Oc1cc(O)ccc1C21OC(=O)c2ccccc21` (stereo not given), `COc1ccc(/C=C(\C#N)c2ccccc2Br)cc1OC1CCCC1` is lower in melting point: 236 °C for the first, 100 to 103 °C for the second.
